Reference: patent publication US8999071B2, “Surfactants derived from oligoglycerols” (Dow Global Technologies LLC, priority 2011, dated 2015)
Each block holds one compound with its values, some of them ahead of it.

Key:
Type in all cases: physicochemical
[1] = Caustic stability: solubility in NaOH solution
Procedure: The caustic stability of compounds 1 and 2 is measured by their solubility in 10 wt % NaOH solution: stock solutions are prepared at 1 wt %. Into a sample vial, 1.0 gram of a stock solution is weighed and then 9.0 grams of 11.1 wt % NaOH solution is added to get a 0.1 wt % surfactant solution in 10% NaOH. Both solutions are clear at this condition. In contrast, Tomadol® 91-6 (C9-C11 alcohols ethoxylated to 6EO, cloud point=52° C.) solution (0.1 wt %) becomes cloudy at 5% NaOH content.

[2] = Acidic stability: appearance and shake foam in 0.01 M HCl
Procedure: The acidic stability of compounds 1 and 2 are tested and compared with Triton™ CG-110 in 0.01 M HCl: solutions are prepared in 0.01 M HCl at 0.1 wt % surfactant concentration. Compound 1 solution is cloudy at this HCl concentration, indicating its cloud point is reduced by the presence of HCl.

[3] = Dynamic surface tension, maximum bubble pressure method (Kruss BP-2)
Procedure: Dynamic surface tension is measured using a Kruss BP-2 Bubble Pressure Tensiometer. During the test, high purity nitrogen gas bubbles are produced in the surfactant solution at an exactly defined bubble generation rate. The gas bubbles enter the liquid through a glass capillary of known radius (0.223 mm). During this process the pressure passes through a maximum whose value is recorded by the instrument. Surface tension is then calculated from the maximum pressure during bubble formation, and reported as a function of bubble surface age, in ms, and bubble frequency. The measurements are made at ambient temperature.
Dynamic surface tension of surfactants at varying surface ages (presented as bubble frequency) are measure by bubble pressure method on Kruss BP2 tensiometer at 0.1 wt % concentration and 25° C.

[4] = as above; remark: listed apart in the source
[5] = Surface tension and critical micelle concentration, Kruss K100 tensiometer with Wilhelmy plate; settings: 25° C., FIG. 1
Procedure: The surface tension and critical micelle concentration (cmc) of a surfactant solution is measured using Kruss K100 Surface Tensiometer fitted with a Wilhelmy platinum plate. A standard method is utilized. In this method, an increment of surfactant solution is added using a Dosimat™ dosimeter to the vessel initially containing deionized water, and then thoroughly stirred. The surface tension of the resulting solution is then measured. The process is repeated at each concentration data point. Two measurements are made for each system at ambient temperature.
Surface tension-Concentration data for the compound 3 at 25° C. are plotted in FIG. 1.

appearance of 0.1 wt % surfactant solution in 10% NaOH [1]: clear | acidic stability compared with Triton CG-110 ([2]; 0.01 M HCl): improved stability | Foam Volume, 20 h ([2]; 0.1 wt % in 0.01M HCl, 10 ml, shaken at high for 10 min., after 20 hours in air at room temperature): 17 mL | Foam Volume, 0 h ([2]; 0.1 wt % in 0.01M HCl, 10 ml, shaken at high for 10 min., right after preparation): 17 mL | foam persistence after shaking, 20 h ([2]; 0.1 wt % in 0.01M HCl, after 20 hours at room temperature): no change | foam persistence after shaking, 0 h ([2]; 0.1 wt % in 0.01M HCl, right after preparation): no change | appearance of solution in 0.01 M HCl ([2]; 0.1 wt % surfactant, 0.01 M HCl): cloudy | surface tension over the whole tested range of ageing time compared to C12TG, C11DG and C10DG ([3]; 0.1 wt %, 25° C., FIG. 2): lower surface tension | Surface Tension @ 6 bubbles/sec., 0.1 wt % ([3]; 25° C.): 35.6 dyne/cm
SMILES: CCCCCCCCCOCC(O)COCC(O)CO (stereo not drawn) [Compound 1, 3-[3-(nonyloxy)-2-hydroxypropoxy]-1,2-propanediol]

Surface Tension @ 6 bubbles/sec., 0.05 wt % [4]: 39.4 dyne/cm | surface tension at bubble frequency larger than 10 bubbles/sec ([3]; 0.1 wt %, 25° C., >10 bubbles/sec, FIG. 2): around 37 dynes/cm | surface tension in the whole range of surface ageing time compared to the Lutensol products ([3]; 0.1 wt %, 25° C., FIG. 2): lower surface tension | surface tension over the whole tested range of ageing time compared to C12TG, C11DG and C10DG ([3]; 0.1 wt %, 25° C., FIG. 2): lower surface tension | surface tension at lower bubble frequency compared to Surfynol 420 ([3]; 1-6 bubbles/sec., 0.1 wt %, FIG. 2): significantly lower surface tension | Surface Tension @ 6 bubbles/sec., 0.1 wt % ([3]; 25° C.): 33.3 dyne/cm | critical micelle concentration (cmc) [5]: about 700 ppm | water surface tension after reaching critical micelle concentration [5]: 26-27 dynes/cm
SMILES: CCCCCC(CCC)COCC(O)COCC(O)CO (stereo not drawn) [Compound 3, 3-(2-hydroxy-3-((2-propylheptyl)oxy)propoxy)propane-1,2-diol]

Surface Tension @ 6 bubbles/sec., 0.1 wt % ([3]; 25° C.): 56.9 dyne/cm
SMILES: CCCCCCCCCCCCOCC(O)COCC(O)COCC(O)CO (stereo not drawn) [Compound C12TG, 3-(3-(3-(dodecyloxy)-2-hydroxypropoxy)-2-hydroxypropoxy)propane-1,2-diol, reference compound]

Surface Tension @ 6 bubbles/sec., 0.1 wt % ([3]; 25° C.): 61.4 dyne/cm
SMILES: CCCCCCCCCCCOCC(O)COCC(O)CO (stereo not drawn) [Compound 6, 3-(2-hydroxy-3-(undecyloxy)propoxy)propane-1,2-diol]

acidic stability compared with Triton CG-110 ([2]; 0.01 M HCl): improved stability
SMILES: CCCCCCCCCCOCC(O)COCC(O)COCC(O)CO (stereo not drawn) [Compound 2, 3-(3-(3-(decyloxy)-2-hydroxypropoxy)-2-hydroxypropoxy)propane-1,2-diol]

Surface Tension @ 6 bubbles/sec., 0.1 wt % ([3]; 25° C.): 43.8 dyne/cm
SMILES: CCCCCCCCCCOCC(O)COCC(O)CO (stereo not drawn) [Compound 4, 3[3-(decyloxy)-2-hydroxypropoxy]-1,2-propanediol]
